# Measurements as given in paper PMC10663837 (iScience, 2023).
# B1: Human p23, purified (natural protein, UniProt Q15185 1-160, looked up)
# chain: MQPASAKWYDRRDYVFIEFCVEDSKDVNVNFEKSKLTFSCLGGSDNFKHLNEIDLFHCIDPNDSKHKRTDRSILCCLRKGESGQSWPRLTKERAKLNWLSVDFNNWKDWEDDSDEDMSNFDRFSEMMNNMGGDEDVDLPEVDGADDDSQDSDDEKMPDLE
# How the values were obtained:
# [1] = system: 4T1 tumor-infiltrating CD8+ T cells; test: Immunofluorescence of 4T1 tumor-infiltrating immune cells; type: in vivo, mouse; conditions: EnnA 10 mg/kg/48 h, 17-AAG 25 mg/kg/48 h
# [2] = system: progesterone receptor (PR) refolding by Hsp90 chaperone machine; test: Progesterone receptor; type: biochemical, rabbit
# [3] = system: cytokine/chemokine mRNA in E0771 cells; test: RTqPCR of cytokines, chemokines and CX3CR1
# Hsp90β/p23 = test: Co-immunoprecipitation of purified Hsp90β with p23; type: binding, human; conditions: 40 μM EnnA or 5 μM 17-AAG, 5 mM ATP, 30 min 30°C
# [4] = system: Hsp90 client proteins, Hsp70, Hsp40, Hsp27; test: Western blot of Hsp90 client and heat shock proteins in cells; type: cell-based, human and murine
# Hsp90β/HOP = test: Co-immunoprecipitation of purified Hsp90β with HOP; type: binding, human; conditions: 40 μM EnnA or 5 μM 17-AAG, 5 mM ATP, 30 min 30°C
# 4T1 tumors = test: Histology; type: in vivo, mouse
# MDA-MB-231 cells = test: Flow cytometry of surface Hsp90, calreticulin, HMGB1, MDA-MB-231 cells; type: cell-based, human; conditions: 7.5 μM EnnA, 0.5 µM 17-AAG, 24h
# [5] = system: MEFs, MCF10A, E0771, Hs578T cells; test: Cytotoxicity to normal versus cancer cells; type: cell-based, mouse and human; conditions: 24, 48, 72 h; EnnA 1.25-20 µM, 17AAG 0.15-5 µM; absorbance 490 nm
# E0771 transcriptome = test: Bulk RNA-seq of E0771 cells; type: cell-based, murine; conditions: ∼14%
# Hsp90β [6] = conditions: cited from earlier work
# cancer cells [7] = conditions: cited from earlier work
# E0771 tumors = test: EnnA combined with CX3CR1 antagonist JMS-17-2, E0771 tumors; type: in vivo, mouse; conditions: JMS-17-2 10 mg/kg i.p. every 48 h alternating with EnnA 10 mg/kg
# [8] = system: lung breast cancer metastasis; conditions: cited from earlier work
# PD-L1 and PD-L2 = conditions: Hsp90 N-terminal inhibitors; cited from earlier work
# cancer cells [9] = conditions: cited from earlier work; remark: listed apart in the source
# [10] = system: patient-derived human melanoma cells; conditions: cited from earlier work
# Hsp90β [11] = test: Cellular thermal shift assay; type: cell-based, murine; conditions: E0771 cells, 20 μM, 90 mn
# Human Hsp90β, purified = Human Hsp90β, purified (human, UniProt P08238 1-724); test: co-IP
# Human Hsp90β, purified, sequence (P08238 whole entry): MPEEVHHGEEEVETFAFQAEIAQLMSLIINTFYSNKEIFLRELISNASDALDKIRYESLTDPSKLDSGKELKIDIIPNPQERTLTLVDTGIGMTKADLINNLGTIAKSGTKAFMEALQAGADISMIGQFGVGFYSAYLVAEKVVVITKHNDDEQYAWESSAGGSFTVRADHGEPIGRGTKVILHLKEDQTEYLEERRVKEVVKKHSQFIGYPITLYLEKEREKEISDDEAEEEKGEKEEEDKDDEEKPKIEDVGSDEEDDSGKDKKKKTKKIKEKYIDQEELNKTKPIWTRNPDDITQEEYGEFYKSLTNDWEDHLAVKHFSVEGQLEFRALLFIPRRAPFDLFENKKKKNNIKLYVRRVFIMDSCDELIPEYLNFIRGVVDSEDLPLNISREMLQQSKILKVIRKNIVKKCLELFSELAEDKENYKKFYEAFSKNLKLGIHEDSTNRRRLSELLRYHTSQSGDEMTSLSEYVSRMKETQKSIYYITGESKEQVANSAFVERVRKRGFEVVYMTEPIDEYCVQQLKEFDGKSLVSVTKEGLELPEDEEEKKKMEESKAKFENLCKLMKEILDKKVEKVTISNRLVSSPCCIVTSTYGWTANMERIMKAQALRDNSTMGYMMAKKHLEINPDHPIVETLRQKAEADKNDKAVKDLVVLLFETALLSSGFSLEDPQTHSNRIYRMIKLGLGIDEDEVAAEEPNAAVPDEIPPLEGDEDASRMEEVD
molecule,measurement,setting,value
"C=CCNC1=C2C[C@@H](C)C[C@H](OC)[C@H](O)[C@@H](C)/C=C(\C)[C@H](OC(N)=O)[C@@H](OC)/C=C\C=C(/C)C(=O)NC(=CC1=O)C2=O [17-AAG, 17-N-allylamino-demethoxygeldanamycin]",CD8+ T cell infiltration,[1],much less so in the 17-AAG-treated group
same,accumulation of Hsp70-rich intermediate chaperoning complexes,"[2]; SDS-PAGE/Coomassie, 1 μM 17-AAG, 10 μM EnnA",accumulation of the intermediate chaperoning complexes rich with Hsp70 as observed with 17-AAG
same,IL10 mRNA,"[3]; E0771, RNA-seq and RTqPCR",decreased mRNA expression of anti-inflammatory cytokines such as IL10
same,"pro-inflammatory cytokines IL12b, TNFα, IL1β mRNA",[3]; RTqPCR,limited impact on these inflammatory cytokines
same,effect on Hsp90β binding to p23,Hsp90β/p23,"as with 17-AAG, EnnA disrupts Hsp90β binding to p23"
same,"heat shock response (mRNA and protein of Hsp70, Hsp40, Hsp27)",[4]; 0.5 μM 17-AAG,"upregulation of mRNA and protein levels of Hsp70, Hsp40, and Hsp27"
same,Hsp90 client protein level,"[4]; EnnA at EC50, 0.5 μM 17-AAG",induced Hsp90 client protein degradation
same,effect on Hsp90β binding to HOP,Hsp90β/HOP,"unlike 17-AAG, EnnA does not affect HOP binding to purified Hsp90β"
same,tumor necrosis,"4T1 tumors; 4T1, H&E, EnnA 10 mg/kg, 17-AAG 25 mg/kg",more necrotic than controls
same,immune-like cell infiltration of necrotic areas,4T1 tumors; 4T1 tumors,not as infiltrated as in the case of EnnA-treated animals
same,"surface exposure of Hsp90, calreticulin, HMGB1 vs 17-AAG",MDA-MB-231 cells,not induced by 17-AAG
same,discrimination between cancer and non-transformed cells,[5],does not discriminate between cancer and non-transformed immortalized cells in cell culture
same,number of genes in common between EnnA and 17-AAG,E0771 transcriptome,34 genes
CC(C)=CCC[C@]1(C)C=Cc2c(O)c3c(c(CC=C(C)C)c2O1)O[C@]12C(=C[C@@H]4C[C@H]1C(C)(C)O[C@@]2(C/C=C(/C)C(=O)O)C4=O)C3=O [GBA],binding to Hsp90β middle domain,Hsp90β [6],binds selectively to the middle domain of Hsp90β
same,mode of cancer cell death,cancer cells [7],GBA-induced cancer cell paraptosis
"Cl.O=c1c2cccn2c2ccccc2n1CCCN1CCC(c2ccc(Cl)cc2)CC1 [JMS-17-2, 5-[3-[4-(4-Chlorophenyl)-1-piperidinyl]propyl]pyrrolo[1,2-a]quinoxalin-4(5H)-one hydrochloride]",effect on EnnA antitumor efficacy,E0771 tumors,significantly reduced the efficacy of EnnA
same,lung breast cancer metastasis,[8],reduce lung breast cancer metastasis
CCNC(=O)c1noc(-c2cc(C(C)C)c(O)cc2O)c1-c1ccc(CN2CCOCC2)cc1 [Luminespib],transcription and cell-surface expression of PD-L1 and PD-L2,PD-L1 and PD-L2,significant decrease in the transcription and cancer cell-surface expression of immune checkpoint ligands PD-L1 and PD-L2
CC(C)NCCCn1c(Sc2cc3c(cc2I)OCO3)nc2c(N)ncnc21 [PU-H71],transcription and cell-surface expression of PD-L1 and PD-L2,PD-L1 and PD-L2,significant decrease in the transcription and cancer cell-surface expression of immune checkpoint ligands PD-L1 and PD-L2
CC1(C)CC(=O)c2c(C(F)(F)F)nn(-c3ccc(C(N)=O)c(N[C@H]4CC[C@H](OC(=O)CN)CC4)c3)c2C1 [SNX-5422],transcription and cell-surface expression of PD-L1 and PD-L2,PD-L1 and PD-L2,significant decrease in the transcription and cancer cell-surface expression of immune checkpoint ligands PD-L1 and PD-L2
CC(C)C[C@H](NC(=O)[C@H](Cc1ccccc1)NC(=O)c1cnccn1)B(O)O [bortezomib],Hsp90 exposure at cell surface,cancer cells [9],expose Hsp90 at the cell surface
CC(C)c1cc(-c2n[nH]c(=O)n2-c2ccc3c(ccn3C)c2)c(O)cc1O [ganetespib],T-cell-mediated killing of melanoma cells,[10]; autologous T cells in vitro,enhances T-cell-mediated killing of patient-derived human melanoma cells
same,effect on anti-CTLA4 and anti-PD-1 therapy,[10]; in vivo,potentiates responses to anti-CTLA4 and anti-PD-1 therapy in vivo
same,transcription and cell-surface expression of PD-L1 and PD-L2,PD-L1 and PD-L2,significant decrease in the transcription and cancer cell-surface expression of immune checkpoint ligands PD-L1 and PD-L2
COC1=C2C[C@@H](C)C[C@H](OC)[C@H](O)[C@@H](C)/C=C(\C)[C@H](OC(N)=O)[C@@H](OC)/C=C\C=C(/C)C(=O)NC(=CC1=O)C2=O [geldanamycin],transcription and cell-surface expression of PD-L1 and PD-L2,PD-L1 and PD-L2,significant decrease in the transcription and cancer cell-surface expression of immune checkpoint ligands PD-L1 and PD-L2
Enniatin B [AD96],inhibition of PR refolding,"[2]; RRL, Figures S1A–S1C, 10 µM drug in screen",did not inhibit the PR refolding
same,CETSA stabilization of Hsp90,Hsp90β [11],did not stabilize Hsp90
B1,binding result,"Human Hsp90β, purified",binds
